Data published in US20080318933A1, “5-Sulfonyl-1-Piperidinyl Substituted Indole Derivatives as 5-Ht6 Receptor Antagonists for the Treatment of Cns Disorders” (Glaxo Group Limited, priority 2004, published 2008).
Where a name gives a salt, the structure may show the parent alone.

Target: T1, human cloned 5-HT6 receptors (Homo sapiens, UniProt P50406)
T1 construct: expressed in transfected cells; host or cells: HeLa cells expressing cloned human 5-HT6 receptor (membranes)
Assay: Cyclase assay (cAMP production in membranes of HeLa 5HT6 cells, 5-HT stimulated)
Format: biochemical
Details: 5-HT at 4xEC50, functional Ki by Cheng-Prusoff, read-out: pKi values (converted)
Experimental: 0.5 μl of test compound in 100% dimethylsulfoxide (DMSO) was added to a white, solid 384 well assay plate (for dose response measurements the top of the concentration range is 7.5 μM final). 10 μl of washed membranes of HeLa 5HT6 cells (for preparation see WO 98/27081) in basic buffer (50 mM HEPES pH 7.4 (KOH), 10 mM MgCl2, 100 mM NaCl, 10 μM 3-isobutyl-1-methylxanthine (IBMX) (Sigma-Aldrich)) was added to all wells followed by 10 μl 2×ATP buffer (i.e. basic buffer containing 3 mM ATP) with 5-HT (at a concentration equivalent to a dose response of 4×EC50). The resultant mixture was then incubated at room temperature for 30-45 minutes to allow cAMP production. cAMP production was then measured using the DiscoveRX™ HitHunter™ chemiluminescence cAMP assay kit (DiscoveRx Corporation, 42501 Albrae Street, Fremont, Calif. 94538; Product Code: 90-0004L) or any other suitable cAMP measurement assay.
IC50 values were estimated from arbitrary designated unit (ADU) measurements from a Perkin Elmer Viewlux instrument using a four parameter logistic curve fit within EXCEL (Bowen, W. P. and Jerman, J. C. (1995), Nonlinear regression using spreadsheets. Trends in Pharmacol. Sci., 16, 413-417). Functional Ki values were calculated using the method of Cheng, Y. C. and Prussof, W. H. (Biochemical Pharmacol (1973) 22 3099-3108). plC50 and fpKi are the negative log 10 of the molar IC50 and functional Ki respectively.

T1 sequence (P50406 whole entry): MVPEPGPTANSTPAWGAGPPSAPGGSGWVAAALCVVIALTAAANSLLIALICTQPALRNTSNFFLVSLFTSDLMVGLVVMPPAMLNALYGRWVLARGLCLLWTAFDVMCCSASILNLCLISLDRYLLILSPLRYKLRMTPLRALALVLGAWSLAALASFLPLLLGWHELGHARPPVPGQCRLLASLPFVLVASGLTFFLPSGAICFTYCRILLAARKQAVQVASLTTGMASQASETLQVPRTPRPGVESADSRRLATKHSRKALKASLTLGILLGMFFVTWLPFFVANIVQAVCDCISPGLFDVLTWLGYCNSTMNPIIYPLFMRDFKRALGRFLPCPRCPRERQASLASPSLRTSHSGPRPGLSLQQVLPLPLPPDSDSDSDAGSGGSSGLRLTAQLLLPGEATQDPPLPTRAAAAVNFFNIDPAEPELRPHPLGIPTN

Row | Compound | Ki [nM]
1 | CCN1CCC(N2CCc3cc(S(=O)(=O)c4ccccc4)ccc32)CC1 [Example E39, 1-(1-Ethyl-4-piperidinyl)-5-(phenylsulfonyl)-2,3-dihydro-1H-indole hydrochloride] | ≤ 10
2 | CCCN1CCC(N2CCc3cc(S(=O)(=O)c4ccccc4)ccc32)CC1 [Example E40, 5-(Phenylsulfonyl)-1-(1-propyl-4-piperidinyl)-2,3-dihydro-1H-indole hydrochloride] | ≤ 10
3 | CN1CCC(N2CCc3cc(S(=O)(=O)c4ccc(F)cc4)ccc32)CC1 [Example E41, 5-[(4-Fluorophenyl)sulfonyl]-1-(1-methyl-4-piperidinyl)-2,3-dihydro-1H-indole hydrochloride] | ≤ 10
4 | CCN1CCC(N2CCc3cc(S(=O)(=O)c4cc(F)ccc4F)ccc32)CC1 [Example E42, 5-[(2,5-Difluorophenyl)sulfonyl]-1-(1-ethyl-4-piperidinyl)-2,3-dihydro-1H-indole hydrochloride] | ≤ 10
5 | CC(C)N1CCC(N2CCc3cc(S(=O)(=O)c4cc(F)ccc4F)ccc32)CC1 [Example E43, 5-[(2,5-Difluorophenyl)sulfonyl]-1-[1-(1-methylethyl)-4-piperidinyl]-2,3-dihydro-1H-indole hydrochloride] | ≤ 10
6 | CCCN1CCC(N2CCc3cc(S(=O)(=O)c4cc(F)ccc4F)ccc32)CC1 [Example E44, 5-[(2,5-Difluorophenyl)sulfonyl]-1-(1-propyl-4-piperidinyl)-2,3-dihydro-1H-indole hydrochloride] | ≤ 10
7 | CC(C)N1CCC(N2CCc3cc(S(=O)(=O)c4ccccc4F)ccc32)CC1 [Example E45, 5-[(2-Fluorophenyl)sulfonyl]-1-[1-(1-methylethyl)-4-piperidinyl]-2,3-dihydro-1H-indole hydrochloride] | ≤ 10
8 | CCCN1CCC(N2CCc3cc(S(=O)(=O)c4ccccc4F)ccc32)CC1 [Example E46, 5-[(2-Fluorophenyl)sulfonyl]-1-(1-propyl-4-piperidinyl)-2,3-dihydro-1H-indole hydrochloride] | ≤ 10
9 | CN1CCC(N2CCc3cc(S(=O)(=O)c4cccc(F)c4)ccc32)CC1 [Example E47, 5-[(3-Fluorophenyl)sulfonyl]-1-(1-methyl-4-piperidinyl)-2,3-dihydro-1H-indole hydrochloride] | ≤ 10
10 | CN1CCC(N2CCc3cc(S(=O)(=O)c4ccccc4F)ccc32)CC1 [Example E48, 5-[(2-Fluorophenyl)sulfonyl]-1-(1-methyl-4-piperidinyl)-2,3-dihydro-1H-indole hydrochloride] | ≤ 10
11 | CN1CCC(N2CCc3cc(S(=O)(=O)c4ccccc4Cl)ccc32)CC1 [Example E49, 5-[(2-Chlorophenyl)sulfonyl]-1-(1-methyl-4-piperidinyl)-2,3-dihydro-1H-indole hydrochloride] | ≤ 10
12 | CN1CCC(N2CCc3cc(S(=O)(=O)c4cc(F)cc(F)c4)ccc32)CC1 [Example E50, 5-[(3,5-Difluorophenyl)sulfonyl]-1-(1-methyl-4-piperidinyl)-2,3-dihydro-1H-indole hydrochloride] | ≤ 10
13 | CCN1CCC(N2CCc3cc(S(=O)(=O)c4cc(F)cc(F)c4)ccc32)CC1 [Example E51, 5-[(3,5-Difluorophenyl)sulfonyl]-1-(1-ethyl-4-piperidinyl)-2,3-dihydro-1H-indole hydrochloride] | ≤ 10
14 | CC(C)N1CCC(N2CCc3cc(S(=O)(=O)c4cc(F)cc(F)c4)ccc32)CC1 [Example E52, 5-[(3,5-Difluorophenyl)sulfonyl]-1-[1-(1-methylethyl)-4-piperidinyl)-2,3-dihydro-1H-indole hydrochloride] | ≤ 10
15 | CN1CCC(N2CCc3cc(S(=O)(=O)c4cccc(Cl)c4)ccc32)CC1 [Example E53, 5-[(3-Chlorophenyl)sulfonyl]-1-(1-methyl-4-piperidinyl)-2,3-dihydro-1H-indole hydrochloride] | ≤ 10
16 | CCN1CCC(N2CCc3cc(S(=O)(=O)c4cccc(Cl)c4)ccc32)CC1 [Example E54, 5-[((3-Chlorophenyl)sulfonyl]-1-(1-ethyl-4-piperidinyl)-2,3-dihydro-1H-indole hydrochloride] | ≤ 10
17 | CCN1CCC(N2CCc3cc(S(=O)(=O)c4cccc(F)c4)ccc32)CC1 [Example E55, 5-[(3-Fluorophenyl)sulfonyl]-1-(1-ethyl-4-piperidinyl)-2,3-dihydro-1H-indole hydrochloride] | ≤ 10
18 | CCCN1CCC(N2CCc3cc(S(=O)(=O)c4cccc(F)c4)ccc32)CC1 [Example E56, 5-[(3-Fluorophenyl)sulfonyl]-1-(1-propyl-4-piperidinyl)-2,3-dihydro-1H-indole hydrochloride] | ≤ 10
19 | CC(C)N1CCC(N2CCc3cc(S(=O)(=O)c4cccc(F)c4)ccc32)CC1 [Example E57, 5-[(3-Fluorophenyl)sulfonyl]-1-(1-(1-methylethyl)-4-piperidinyl)-2,3-dihydro-1H-indole hydrochloride] | ≤ 10
20 | CCN1CCC(N2CCc3cc(S(=O)(=O)c4ccccc4F)ccc32)CC1 [Example E58, 5-[(2-Fluorophenyl)sulfonyl]-1-(1-ethyl-4-piperidinyl)-2,3-dihydro-1H-indole hydrochloride] | ≤ 10
21 | CN1CCC(N2CCc3cc(S(=O)(=O)c4ccc(F)c(F)c4)ccc32)CC1 [Example E59, 5-[(3,4-Difluorophenyl)sulfonyl]-1-(1-methyl-4-piperidinyl)-2,3-dihydro-1H-indole hydrochloride] | ≤ 10
22 | CCN1CCC(N2CCc3cc(S(=O)(=O)c4ccc(F)c(F)c4)ccc32)CC1 [Example E60, 5-[(3,4-Difluorophenyl)sulfonyl]-1-(1-ethyl-4-piperidinyl)-2,3-dihydro-1H-indole hydrochloride] | ≤ 10
23 | CCN1CCC(N2CCc3cc(S(=O)(=O)c4cccc(C)c4)ccc32)CC1 [Example E63, 5-[(3-Methylphenyl)sulfonyl]-1-(1-ethyl-4-piperidinyl)-2,3-dihydro-1H-indole hydrochloride] | ≤ 10
24 | CCCN1CCC(N2CCc3cc(S(=O)(=O)c4cccc(C)c4)ccc32)CC1 [Example E64, 5-[(3-Methylphenyl)sulfonyl]-1-(1-propyl-4-piperidinyl)-2,3-dihydro-1H-indole hydrochloride] | ≤ 10
25 | Cc1cn(C2CCNCC2)c2ccc(S(=O)(=O)c3ccccc3)cc12 [Example E65, 3-Methyl-5-(phenylsulfonyl)-1-(4-piperidinyl)-1H-indole hydrochloride] | ≤ 10
